The text below walks through data of PMC6792352, “Limited Chemical Structural Diversity Found to Modulate Thyroid Hormone Receptor in the Tox21 Chemical Library” (Environmental Health Perspectives, 2019).

SMILES strings stand for the structures. Where a name gives a salt, the structure may show the parent alone.

The first data set can be described thus: in vitro. The settings on record: rat, gh3-tre-luc cells, AC50 (uM) modified / 1000.
By CC50 is commonly meant the concentration at which the toxic effect on the cells reaches its halfway point. `CCOC(=O)c1cc(-c2ccccc2)nc2ccc(C)cc12` [Neocinchophen] yielded a 50% cytotoxic concentration (CC50) at 24 h of 44.6 µM.
Same read-out and setting: the same measure for `CC(C)(C)CCCCCC(=O)O` [Neodecanoic acid]: over 90 µM.
In the case of `COc1ccc(CCC(=O)c2c(O)cc(O[C@@H]3O[C@H](CO)[C@@H](O)[C@H](O)[C@H]3O[C@@H]3O[C@@H](C)[C@H](O)[C@@H](O)[C@H]3O)cc2O)cc1O` [Neohesperidin dihydrochalcone], the CC50 at 24 h is over 90 µM.
Still for that read-out and setting: as for `NC[C@@H]1O[C@H](O[C@H]2[C@@H](O)[C@H](O[C@@H]3[C@@H](O)[C@H](N)C[C@H](N)[C@H]3O[C@H]3O[C@H](CN)[C@@H](O)[C@H](O)[C@H]3N)O[C@@H]2CO)[C@H](N)[C@@H](O)[C@@H]1O` [Neomycin sulfate], the figure is over 50 µM; as for `CC(C)(COC(=O)c1ccccc1)COC(=O)c1ccccc1` [Neopentyl glycol dibenzoate], over 90 µM.
The molecule `CC(C)(CCl)c1ccccc1` [Neophyl chloride] yielded a CC50 at 24 h of over 90 µM.
In the case of `CN(C)C(=O)Oc1cccc([N+](C)(C)C)c1` [Neostigmine bromide], the CC50 at 24 h is over 50 µM.
`NC(=O)Cc1cccc(C(=O)c2ccccc2)c1N` [Nepafenac] registered a CC50 at 24 h of over 50 µM.
The same measure, in the same setting: the same measure for `CCCCc1cc2c(=O)c(C(=O)OC)c[nH]c2cc1OCc1ccccc1` [Nequinate]: over 50 µM; for `C=CC(C)(O)CC/C=C(\C)CCC=C(C)C` (stereo not drawn) [Nerolidol]: over 90 µM.
The molecule `CCN[C@@H]1C[C@H](N)[C@@H](O[C@H]2OC(CN)=CC[C@H]2N)[C@H](O)[C@H]1O[C@H]1OC[C@](C)(O)[C@H](NC)[C@H]1O` [Netilmicin sulfate] displayed a CC50 at 24 h of over 50 µM.
The same measure, in the same setting: as for `Cc1ccnc2c1NC(=O)c1cccnc1N2C1CC1` [Nevirapine], the figure is over 90 µM; as for `NC(=O)c1cccnc1` [Niacinamide], over 90 µM.
Same read-out and setting: as for `O=C(CCNNC(=O)c1ccncc1)NCc1ccccc1` [Nialamide], the figure is over 50 µM; as for `CCN(CC)CCOC(=O)c1cccnc1` [Nicametate citrate], over 50 µM.
On the same count and under the same terms, the same measure for `CC(CNC(=O)c1cccnc1)NC(=O)c1cccnc1` (stereo not drawn) [Nicaraven]: over 50 µM; for `CO[C@]12C[C@@H](COC(=O)c3cncc(Br)c3)CN(C)[C@@H]1Cc1cn(C)c3cccc2c13` [Nicergoline]: 16.4 µM.
Molecule `O=C(OCC(COC(=O)c1cccnc1)(COC(=O)c1cccnc1)COC(=O)c1cccnc1)c1cccnc1` [Niceritrol] came in with a CC50 at 24 h of over 50 µM.
`O=C(OC[C@H]1O[C@](O)(COC(=O)c2cccnc2)[C@@H](OC(=O)c2cccnc2)[C@@H]1OC(=O)c1cccnc1)c1cccnc1` [Nicofuranose] showed a CC50 at 24 h of over 50 µM.
For `O=C(OCC1(COC(=O)c2cccnc2)CCCC(COC(=O)c2cccnc2)(COC(=O)c2cccnc2)C1O)c1cccnc1` [Nicomolol], the half-maximal cytotoxic concentration (CC50) at 24 h is over 50 µM.
On the same count and under the same terms, as for `O=C(NCCO[N+](=O)[O-])c1cccnc1` [Nicorandil], the figure is over 50 µM.
Same read-out and setting: the same measure for `COc1cc(OC)nc(NC(=O)NS(=O)(=O)c2ncccc2C(=O)N(C)C)n1` [Nicosulfuron]: over 90 µM; for `NC(=S)N/N=C/c1cccnc1` [Nicothiazone]: over 50 µM.
Turning to `CN1CCC[C@H]1c1cccnc1` [Nicotine], the CC50 at 24 h is over 90 µM.
As for `O=C(O)c1ccc[n+]([O-])c1` [Nicotinic acid 1-oxide], the CC50 at 24 h was over 50 µM.
`O=C(O)c1cccnc1` [Nicotinic acid] gave a CC50 at 24 h of over 50 µM.
`OCc1cccnc1` [Nicotinyl alcohol]: the CC50 at 24 h was over 50 µM.
`O=C(NCCc1c[nH]c2ccccc12)c1cccnc1` [Nicotredole] came in with a CC50 at 24 h of over 50 µM.
`Cn1c(NCCN(CCO)CCCc2ccc([N+](=O)[O-])cc2)cc(=O)n(C)c1=O` [Nifekalant hydrochloride] showed a CC50 at 24 h of over 50 µM.
Same read-out and setting: the same measure for `CC(C)NCC(O)c1ccc([N+](=O)[O-])cc1` (stereo not drawn) [Nifenalol]: over 50 µM; for `Cc1c(NC(=O)c2cccnc2)c(=O)n(-c2ccccc2)n1C` [Nifenazone]: over 20 µM; for `NC(=O)C(=O)N/N=C/c1ccc([N+](=O)[O-])o1` [Nifuraldezone]: 24.8 µM.
`O=C(N/N=C/c1ccc([N+](=O)[O-])o1)c1ccc(O)cc1` [Nifuroxazide]: the CC50 at 24 h is over 20 µM.
Same read-out and setting: as for `O=[N+]([O-])c1ccc(/C=N\O)o1` [Nifuroxime], the figure is over 50 µM; as for `O=C(N/N=C/c1ccc([N+](=O)[O-])o1)c1cc([N+](=O)[O-])cc([N+](=O)[O-])c1O` [Nifursol], 32.5 µM.
Same read-out and setting: as for `CC1CS(=O)(=O)CCN1/N=C/c1ccc([N+](=O)[O-])o1` (stereo not drawn) [Nifurtimox], the figure is 8.46 µM.
The same measure, in the same setting: as for `CC(=O)N/N=C/c1ccc([N+](=O)[O-])o1` [Nihydrazone], the figure is 17.4 µM.
With `CC1(C)NC(=O)N(c2ccc([N+](=O)[O-])c(C(F)(F)F)c2)C1=O` [Nilutamide], the CC50 at 24 h is over 90 µM.
The molecule `COC(=O)C1=C(C#N)NC(C)=C(C(=O)OC(C)C)C1c1cccc([N+](=O)[O-])c1` (stereo not drawn) [Nilvadipine] gave a CC50 at 24 h of 27.9 µM.
Same read-out and setting: as for `CN1C(=O)CN=C(c2ccccc2)c2cc([N+](=O)[O-])ccc21` [Nimetazepam], the figure is over 50 µM; as for `COCCOC(=O)C1=C(C)NC(C)=C(C(=O)OC(C)C)C1c1cccc([N+](=O)[O-])c1` (stereo not drawn) [Nimodipine], over 50 µM; as for `Cc1ncc(CNC(=O)N(CCCl)N=O)c(N)n1` [Nimustine], over 50 µM.
Still for that read-out and setting: the same measure for `O=C1c2ccccc2C(=O)C1(O)O` [Ninhydrin]: over 90 µM; for `O=C1NCCN1c1ncc([N+](=O)[O-])s1` [Niridazole]: over 20 µM.
Consider `CNCCC(Oc1ccccc1OC)c1ccccc1` (stereo not drawn) [Nisoxetine], for which the midpoint of cytotoxicity, the CC50 at 24 h, lay at 38.3 µM.
Molecule `CC(=O)Nc1ncc([N+](=O)[O-])s1` [Nithiamide] gave a CC50 at 24 h of over 50 µM.
Still for that read-out and setting: the same measure for `Clc1cccc(C(Cl)(Cl)Cl)n1` [Nitrapyrin]: over 90 µM.
In the case of `O=C1CN=C(c2ccccc2)c2cc([N+](=O)[O-])ccc2N1` [Nitrazepam], the CC50 at 24 h is over 50 µM.
`Cc1nc([N+](=O)[O-])cn1-c1ccc([N+](=O)[O-])cc1` [Nitrefazole] came in with a CC50 at 24 h of over 50 µM.
Still for that read-out and setting: the same measure for `CCOC(=O)C1=C(C)NC(C)=C(C(=O)OC)C1c1cccc([N+](=O)[O-])c1` (stereo not drawn) [Nitrendipine]: over 50 µM.
On the same count and under the same terms, as for `O=C(O)CN(CC(=O)O)CC(=O)O` [Nitrilotriacetic acid], the figure is over 90 µM.
On the same count and under the same terms, as for `O=[N+]([O-])c1ccccc1` [Nitrobenzene], the figure is over 90 µM; as for `NC(=O)N/N=C/c1ccc([N+](=O)[O-])o1` [Nitrofurazone], over 90 µM; as for `O=NN1CCCCCCC1` [Nitrosoheptamethyleneimine], over 90 µM.
Take `CN(N=O)c1ccccc1` [Nitrosomethylaniline]: the CC50 at 24 h is over 90 µM.
The molecule `CC(C)OC(=O)c1cc(C(=O)OC(C)C)cc([N+](=O)[O-])c1` [Nitrothal-isopropyl] gave a CC50 at 24 h of over 90 µM.
Molecule `NC(N)=NN=C(/C=C/c1ccc([N+](=O)[O-])o1)/C=C/c1ccc([N+](=O)[O-])o1` [Nitrovin] came in with a CC50 at 24 h of 1.82 µM.
The same measure, in the same setting: as for `O=[N+]([O-])c1ccc(O)c2ncccc12` [Nitroxoline], the figure is 4.94 µM.
On the same count and under the same terms, the same measure for `Cc1cccc(Nc2ncccc2C(=O)O)c1C` [Nixylic acid]: over 50 µM.
On the same count and under the same terms, as for `CCN(CC)Cc1nccn1-c1ccc([N+](=O)[O-])cc1C(=O)c1ccccc1Cl` [Nizofenone], the figure is over 50 µM; as for `COC(=O)Nc1nc2ccc(C(=O)c3cccs3)cc2[nH]1` [Nocodazole], 0.337 µM; as for `Cc1ccc2nc(N)[nH]c(=O)c2c1Sc1ccncc1` [Nolatrexed dihydrochloride], over 50 µM.
`CN1Cc2c(N)cccc2C(c2ccccc2)C1` (stereo not drawn) [Nomifensine] returned a CC50 at 24 h of 38.8 µM.
As to `CCCCCCCCC=O` [Nonanal], the CC50 at 24 h is over 90 µM.
Still for that read-out and setting: as for `CCCCCCCCC` [Nonane], the figure is over 90 µM; as for `O=C(O)CCCCCCCC(=O)O` [Nonanedioic acid], over 90 µM; as for `CCCCCCCCC(=O)O` [Nonanoic acid], over 90 µM.
Still for that read-out and setting: as for `CCCCCCCCC(=O)Cl` [Nonanoyl chloride], the figure is over 90 µM; as for `CCCCCCCCC(=O)NCc1ccc(O)c(OC)c1` [Nonivamide], over 90 µM; as for `CCCCCCCCCOC(C)=O` [Nonyl acetate], over 90 µM.
`CCCCCCCCCOC(=O)c1ccc(O)cc1` [Nonylparaben] showed a CC50 at 24 h of 21.8 µM.
The same measure, in the same setting: the same measure for `C=C(C)[C@@H]1CCC2=CC(=O)C[C@@H](C)[C@]2(C)C1` [Nootkatone]: over 90 µM.

Still in this data set, the particulars now being: rat, gh3-tre-luc cells, AC50 (uM) modified / 1000, Tox21_110001=Tox21_112027; viability, 1 nM T3 present, 24 h.
Take `COc1ccc2c3c1O[C@H]1[C@@H](O)C=C[C@H]4[C@@H](C2)NCC[C@@]341` [Norcodeine]: the CC50 at 24 h was over 50 µM.

Still in this data set, the particulars now being: rat, gh3-tre-luc cells, AC50 (uM) modified / 1000, Tox21_110001=Tox21_200666; viability, 1 nM T3 present, 24 h.
In turn, `NNC(=O)c1cccnc1` [Nicotinic acid hydrazide] returned a CC50 at 24 h of over 90 µM.

The data set is the same for the next values; noted with them: rat, gh3-tre-luc cells, AC50 (uM) modified / 1000, Tox21_110001=Tox21_200822; viability, 1 nM T3 present, 24 h.
In turn, `C[N+](=O)[O-]` [Nitromethane] yielded a CC50 at 24 h of over 90 µM.

The data set is the same for the next values; noted with them: rat, gh3-tre-luc cells, AC50 (uM) modified / 1000, Tox21_110001=Tox21_202217; viability, 1 nM T3 present, 24 h.
As to `CC[N+](=O)[O-]` [Nitroethane], the CC50 at 24 h was over 90 µM.

Still in this data set, the particulars now being: rat, gh3-tre-luc cells, AC50 (uM) modified / 1000, Tox21_110001=Tox21_202438; viability, 1 nM T3 present, 24 h.
`O=[N+]([O-])c1ccc(Oc2ccc(Cl)cc2Cl)cc1` [Nitrofen] yielded a CC50 at 24 h of over 90 µM.

The same data set, now with this note: rat, gh3-tre-luc cells, AC50 (uM) modified / 1000, Tox21_110001=Tox21_301901; viability, 1 nM T3 present, 24 h.
Molecule `CCCN(CCC)c1c([N+](=O)[O-])cc(S(C)(=O)=O)cc1[N+](=O)[O-]` [Nitralin] gave a CC50 at 24 h of over 90 µM.
